In PubChem BioAssay (NCI):
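Compound exposure: 48 hours, 5 concentrations, 96-well plates. The concentration for full growth arrest is given as TGI.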

Tests used:
Assay in all cases: DTP human tumour cell line panel, 48 h
M14 melanoma = test system: M14 melanoma
A498 renal = test system: A498 renal
IGROV1 ovarian = test system: IGROV1 ovarian
CAKI-1 renal = test system: CAKI-1 renal
HS 578T breast = test system: HS 578T breast
OVCAR-4 ovarian = test system: OVCAR-4 ovarian
OVCAR-5 ovarian = test system: OVCAR-5 ovarian
SN12C renal = test system: SN12C renal
SK-MEL-5 melanoma = test system: SK-MEL-5 melanoma
NCI-H226 lung = test system: NCI-H226 lung

| Structure (SMILES) | TGI (M14 melanoma) | TGI (A498 renal) | TGI (IGROV1 ovarian) | TGI (CAKI-1 renal) | TGI (HS 578T breast) | TGI (OVCAR-4 ovarian) | TGI (OVCAR-5 ovarian) | TGI (SN12C renal) | TGI (SK-MEL-5 melanoma) | TGI (NCI-H226 lung) |
| --- | --- | --- | --- | --- | --- | --- | --- | --- | --- | --- |
| COc1ccccc1C1c2cc3c(cc2OC(N2CCCC2)C1C)OCO3 (configuration not stated) | 30.1 µM | 30.3 µM | 51.5 µM | 31.4 µM | 30 µM | 70.5 µM | 41.1 µM | 39.7 µM | 29.4 µM | – |
| CCCCCCCCCCCCC(O)C(=O)O (configuration not stated) | > 100 µM | > 100 µM | > 100 µM | > 100 µM | > 100 µM | > 100 µM | > 100 µM | > 100 µM | > 100 µM | – |
| O=c1ccc2ccccc2c2ccccc12 | 6.52 µM | 52.2 µM | 19 µM | 8.55 µM | – | 20.4 µM | 6.7 µM | 6.44 µM | 12.7 µM | 15.1 µM |
| C/C(N)=N/OCc1nc(C)no1 | > 100 µM | – | – | > 100 µM | > 100 µM | > 100 µM | – | > 100 µM | > 100 µM | – |
| COc1cc(C(=O)O)c(-c2cc3c(cc2C=O)OCO3)c(OC)c1OC | > 10 µM | – | > 10 µM | > 10 µM | > 10 µM | > 10 µM | – | > 10 µM | > 10 µM | – |
| CC(C)N(C(=O)C12C3C4C1C1C2C3C41C(=O)N(C(C)C)C(C)C)C(C)C (configuration not stated) | > 50 µM | > 50 µM | > 50 µM | > 50 µM | – | > 50 µM | > 50 µM | > 50 µM | > 50 µM | > 50 µM |
| Cc1ccc(S(=O)(=O)NC(=O)Nc2cc(Cl)c(S(N)(=O)=O)cc2S(N)(=O)=O)cc1 | > 100 µM | – | > 100 µM | > 100 µM | > 100 µM | > 100 µM | > 100 µM | > 100 µM | > 100 µM | > 100 µM |
| c1cc(CN2CCNCCNCCNCC2)cc(CN2CCNCCNCCNCC2)c1 | > 100 µM | – | > 100 µM | – | > 100 µM | > 100 µM | > 100 µM | > 100 µM | > 100 µM | > 100 µM |
| CN(C)CC(/C(Cc1ccccc1)=N\NC(=S)NN)c1ccccc1 (configuration not stated) | > 100 µM | – | > 100 µM | > 100 µM | – | > 100 µM | > 100 µM | > 100 µM | – | > 100 µM |
| O=C(O)Cc1cccc2c(=O)c3cccc([N+](=O)[O-])c3[nH]c12 | > 100 µM | > 100 µM | > 100 µM | > 100 µM | > 100 µM | > 100 µM | > 100 µM | > 100 µM | > 100 µM | – |
| COc1cc(-c2cc(=O)c3ccccc3[nH]2)cc(OC)c1OC | > 75 µM | – | – | – | – | – | – | > 75 µM | – | – |
| CN(C)C(F)=PC(F)(F)F (configuration not stated) | > 100 µM | > 100 µM | > 100 µM | > 100 µM | – | > 100 µM | > 100 µM | > 100 µM | > 100 µM | > 100 µM |
| O=C(/C=C(\Nc1ccccc1O)c1ccc(Br)cc1)C(Cl)(Cl)Cl | 29.2 µM | – | 23.7 µM | 20.7 µM | 18.1 µM | 19.2 µM | 24.5 µM | 20 µM | 27.7 µM | 26.5 µM |
| CSC(=N)N1N=C2/C(=C/c3ccccc3)CCC[C@H]2[C@H]1c1ccccc1 | 14.8 µM | 18.4 µM | 9.18 µM | – | – | 11.8 µM | 14.7 µM | 14.1 µM | – | 11.2 µM |
| Oc1cccnc1/C=N/OCc1ccccc1 | > 100 µM | > 100 µM | > 100 µM | > 100 µM | – | – | > 100 µM | > 100 µM | > 100 µM | > 100 µM |
| COC(=O)CCC(NC(=S)N/N=C(\C)c1cnccn1)C(=O)OC (configuration not stated) | > 100 µM | > 100 µM | > 100 µM | – | – | > 100 µM | 79.7 µM | > 100 µM | > 100 µM | > 100 µM |
| O=C(O)C12CC3CC(CC(F)(C3)C1)C2 | > 100 µM | > 100 µM | > 100 µM | – | – | – | > 100 µM | – | > 100 µM | – |
| COCCOCOC(C)(C)[C@H](CCO)O[Si](c1ccccc1)(c1ccccc1)C(C)(C)C | 21.8 µM | 31.6 µM | 22.9 µM | – | – | – | 27.5 µM | 12.7 µM | 26.7 µM | – |
| CN(CCNC(=S)c1cn(C)c2c1ccc1ccccc12)CCNC(=S)c1cn(C)c2c1ccc1ccccc12 | – | – | > 100 µM | > 100 µM | > 100 µM | > 100 µM | > 100 µM | > 100 µM | > 100 µM | – |
| C=C1C2CCC3(CCC4C5(C)CCCC4(C=[N+](CCO)C5)C3C2)C1O (configuration not stated) | > 100 µM | > 100 µM | > 100 µM | > 100 µM | > 100 µM | > 100 µM | > 100 µM | > 100 µM | > 100 µM | – |
